Patent publication US20020137929A1, “1 - (3-heterocyclylphenyl) isothiourea, -isourea, -guanidine and -amidine herbicidal agents” (Intellectual Property Department, BASF Aktiengesellschaft, priority 1998, published 2002)

Experiments:
[1] = tested on: ABUTH (Velvetleaf); experiment: Postemergence herbicidal evaluation; format: in vivo, Abutilon theophrasti
How it was run: (§1)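 ~2-wk seedlings; postemergence spray, 40 psi; vehicle 1:1 acetone:water + 0.5% Tween 20; rate ≈0.0156–0.500 kg/ha; greenhouse hold; scored 4–5 wk after treatment, 0–9 scale vs control; repeat tests averaged.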

[2] = tested on: CHEAL (Lambsquarters, Common); experiment: Postemergence herbicidal evaluation; format: in vivo, Chenopodium album
How it was run: as §1

[3] = tested on: IPOHE (Morningglory, Ivyleaf); experiment: Postemergence herbicidal evaluation; format: in vivo, Ipomoea hederacea
How it was run: as §1

[4] = tested on: ECHCG (Barnyardgrass); experiment: Postemergence herbicidal evaluation; format: in vivo, Echinochloa crus-galli
How it was run: as §1

[5] = tested on: SETVI (Foxtail, Green); experiment: Postemergence herbicidal evaluation; format: in vivo, Setaria viridis
How it was run: as §1

[6] = tested on: ORYSAT (Rice, Tebonnet); experiment: Postemergence herbicidal evaluation; format: in vivo, Oryza sativa, (L.) Tebonnet
How it was run: as §1

[7] = tested on: ZEAMX (Corn, Field); experiment: Postemergence herbicidal evaluation; format: in vivo, Zea mays
How it was run: as §1

[8] = tested on: ABUTH (Velvetleaf); experiment: Preemergence herbicidal evaluation; format: in vivo, Abutilon theophrasti; conditions: rated 4-5 weeks after treatment
How it was run: (§2)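 Preemergence soil application of compound, sprayed in aqueous acetone at rates equivalent to about 0.0156 to 0.500 kg per hectare onto freshly sown cups. Plant response was judged by eye on a 0-9 scale four to five weeks later.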

[9] = tested on: CASOB (Sicklepod); experiment: Preemergence herbicidal evaluation; format: in vivo, Cassia obtusifolia; conditions: rated 4-5 weeks after treatment
How it was run: as §2

[10] = tested on: CHEAL (Lambsquarters, Common); experiment: Preemergence herbicidal evaluation; format: in vivo, Chenopodium album; conditions: rated 4-5 weeks after treatment
How it was run: as §2

[11] = tested on: IPOHE (Morningglory, Ivyleaf); experiment: Preemergence herbicidal evaluation; format: in vivo, Ipomoea hederacea; conditions: rated 4-5 weeks after treatment
How it was run: as §2

[12] = tested on: ECHCG (Barnyardgrass); experiment: Preemergence herbicidal evaluation; format: in vivo, Echinochloa crus-galli; conditions: rated 4-5 weeks after treatment
How it was run: as §2

[13] = tested on: GLXMAW (Soybean, Williams); experiment: Preemergence herbicidal evaluation; format: in vivo, Glycine max, (L.) Merr. cv Williams; conditions: rated 4-5 weeks after treatment
How it was run: as §2

[14] = tested on: TRZAWR (Wheat, Winter, cv Riband); experiment: Preemergence herbicidal evaluation; format: in vivo, Triticum aestivum; conditions: rated 4-5 weeks after treatment
How it was run: as §2

[15] = tested on: ZEAMX (Corn, Field); experiment: Preemergence herbicidal evaluation; format: in vivo, Zea mays; conditions: rated 4-5 weeks after treatment
How it was run: as §2

[16] = tested on: CYPIR (Rice Flatsedge); experiment: Postemergence weed control under flooded paddy conditions; format: in vivo, Cyperus iria; conditions: postemergence weeds, 3-4 weeks after treatment
How it was run: (§3)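 With weeds 3 to 5 cm tall and rice at the 1.5 to 2.5 leaf stage, containers were flooded and water held 1.5 to 3 cm above soil. Compounds in 50/50 v/v aqueous/acetone went into the flood water at about 0.0313 to 0.500 kg/ha a.i. Effects were visually rated 0–9 against controls after three to four weeks in the greenhouse.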

[17] = tested on: CYPSE (Flatsedge); experiment: as above; format: in vivo, Cyperus serotinus; conditions: postemergence weeds, 3-4 weeks after treatment
How it was run: as §3

CCOC(=O)CN1C(=O)CS(=O)(=O)C1=Nc1cc(-n2c(=O)cc(C(F)(F)F)n(C)c2=O)c(F)cc1Cl [Compound 46, 2-{{2-Chloro-5-[3,6-dihydro-3-methyl-2,6-dioxo-4-(trifluoromethyl)-1(2H)-pyrimidinyl]-4-fluoro-phenyl}imino}-4-oxo-3-thiazolidineacetic acid, ethyl ester, 1,1-dioxide]
9.0: Postemergence herbicidal rating ABUTH ([1]; Rate 0.0625 kg/ha) | Postemergence herbicidal rating IPOHE ([3]; Rate 0.0625 kg/ha) | Preemergence herbicidal rating ABUTH ([8]; rate 0.1250 kg/ha) | Preemergence herbicidal rating ABUTH ([8]; rate 0.2500 kg/ha) | Preemergence herbicidal rating CHEAL ([10]; rate 0.1250 kg/ha) | Preemergence herbicidal rating CHEAL ([10]; rate 0.2500 kg/ha)
0.0: Postemergence herbicidal rating CHEAL ([2]; Rate 0.0313 kg/ha) | Postemergence herbicidal rating CHEAL ([2]; Rate 0.0625 kg/ha) | Postemergence herbicidal rating ECHCG ([4]; Rate 0.0313 kg/ha) | Postemergence herbicidal rating ECHCG ([4]; Rate 0.0625 kg/ha) | Postemergence herbicidal rating SETVI ([5]; Rate 0.0313 kg/ha) | Postemergence herbicidal rating SETVI ([5]; Rate 0.0625 kg/ha) | Preemergence herbicidal rating CASOB ([9]; rate 0.1250 kg/ha) | Preemergence herbicidal rating CASOB ([9]; rate 0.2500 kg/ha) | Preemergence herbicidal rating IPOHE ([11]; rate 0.1250 kg/ha) | Preemergence herbicidal rating ECHCG ([12]; rate 0.1250 kg/ha) | Preemergence herbicidal rating ECHCG ([12]; rate 0.2500 kg/ha) | Preemergence herbicidal rating GLXMAW ([13]; rate 0.1250 kg/ha) | Preemergence herbicidal rating GLXMAW ([13]; rate 0.2500 kg/ha) | Preemergence herbicidal rating TRZAWR ([14]; rate 0.1250 kg/ha) | Preemergence herbicidal rating TRZAWR ([14]; rate 0.2500 kg/ha) | Preemergence herbicidal rating ZEAMX ([15]; rate 0.1250 kg/ha) | Herbicidal rating CYPIR ([16]; rate 0.0313 kg/ha) | Herbicidal rating CYPIR ([16]; rate 0.0625 kg/ha) | Herbicidal rating CYPIR ([16]; rate 0.1250 kg/ha) | Herbicidal rating CYPIR ([16]; rate 0.2500 kg/ha) | Herbicidal rating CYPSE ([17]; rate 0.0313 kg/ha) | Herbicidal rating CYPSE ([17]; rate 0.0625 kg/ha) | Herbicidal rating CYPSE ([17]; rate 0.1250 kg/ha)
4.0: Postemergence herbicidal rating ABUTH ([1]; Rate 0.0313 kg/ha)
4.5: Postemergence herbicidal rating ZEAMX ([7]; Rate 0.0313 kg/ha)
3.0: Postemergence herbicidal rating IPOHE ([3]; Rate 0.0313 kg/ha)
6.0: Herbicidal rating CYPSE ([17]; rate 0.2500 kg/ha)
1.0: Postemergence herbicidal rating ORYSAT ([6]; Rate 0.0313 kg/ha) | Preemergence herbicidal rating IPOHE ([11]; rate 0.2500 kg/ha) | Preemergence herbicidal rating ZEAMX ([15]; rate 0.2500 kg/ha)
5.0: Postemergence herbicidal rating ZEAMX ([7]; Rate 0.0625 kg/ha)
1.5: Postemergence herbicidal rating ORYSAT ([6]; Rate 0.0625 kg/ha)

CCOC(=O)CN1C(=O)C(CCO)S/C1=N/c1cc(-n2c(=O)cc(C(F)(F)F)n(C)c2=O)c(F)cc1Cl (stereo not drawn) [Compound 49, Ethyl 2-{{2-chloro-5-[3,6-dihydro-3-methyl-2,6-dioxo-4-(trifluoromethyl)-1(2H)-pyrimidinyl]-4-fluorophenyl}imino}-5-(hydroxyethyl)-4-oxo-3-thiazolidineacetate]
7.0: Postemergence herbicidal rating SETVI ([5]; Rate 0.0625 kg/ha) | Herbicidal rating CYPIR ([16]; rate 0.2500 kg/ha)
0.0: Postemergence herbicidal rating ECHCG ([4]; Rate 0.0313 kg/ha) | Postemergence herbicidal rating ECHCG ([4]; Rate 0.0625 kg/ha) | Postemergence herbicidal rating ECHCG ([4]; rate 0.0156 kg/ha) | Preemergence herbicidal rating CASOB ([9]; rate 0.0156 kg/ha) | Preemergence herbicidal rating IPOHE ([11]; rate 0.0156 kg/ha) | Preemergence herbicidal rating IPOHE ([11]; rate 0.0313 kg/ha) | Preemergence herbicidal rating ECHCG ([12]; rate 0.0156 kg/ha) | Preemergence herbicidal rating ECHCG ([12]; rate 0.0313 kg/ha) | Preemergence herbicidal rating ECHCG ([12]; rate 0.0625 kg/ha) | Preemergence herbicidal rating ECHCG ([12]; rate 0.1250 kg/ha) | Preemergence herbicidal rating GLXMAW ([13]; rate 0.0156 kg/ha) | Preemergence herbicidal rating GLXMAW ([13]; rate 0.0313 kg/ha) | Preemergence herbicidal rating TRZAWR ([14]; rate 0.0156 kg/ha) | Preemergence herbicidal rating TRZAWR ([14]; rate 0.0313 kg/ha) | Preemergence herbicidal rating TRZAWR ([14]; rate 0.0625 kg/ha) | Preemergence herbicidal rating TRZAWR ([14]; rate 0.1250 kg/ha) | Preemergence herbicidal rating ZEAMX ([15]; rate 0.0156 kg/ha) | Preemergence herbicidal rating ZEAMX ([15]; rate 0.0313 kg/ha) | Preemergence herbicidal rating ZEAMX ([15]; rate 0.0625 kg/ha) | Herbicidal rating CYPIR ([16]; rate 0.0313 kg/ha) | Herbicidal rating CYPIR ([16]; rate 0.0625 kg/ha)
2.0: Preemergence herbicidal rating IPOHE ([11]; rate 0.0625 kg/ha) | Preemergence herbicidal rating GLXMAW ([13]; rate 0.0625 kg/ha) | Preemergence herbicidal rating GLXMAW ([13]; rate 0.1250 kg/ha) | Preemergence herbicidal rating GLXMAW ([13]; rate 0.2500 kg/ha) | Preemergence herbicidal rating TRZAWR ([14]; rate 0.2500 kg/ha) | Herbicidal rating CYPIR ([16]; rate 0.1250 kg/ha) | Herbicidal rating CYPSE ([17]; rate 0.0313 kg/ha)
2.5: Postemergence herbicidal rating ORYSAT ([6]; Rate 0.0313 kg/ha)
1.0: Postemergence herbicidal rating ORYSAT ([6]; rate 0.0156 kg/ha)
4.0: Postemergence herbicidal rating SETVI ([5]; Rate 0.0313 kg/ha) | Herbicidal rating CYPSE ([17]; rate 0.2500 kg/ha)
9.0: Postemergence herbicidal rating ABUTH ([1]; Rate 0.0313 kg/ha) | Postemergence herbicidal rating ABUTH ([1]; Rate 0.0625 kg/ha) | Postemergence herbicidal rating ABUTH ([1]; rate 0.0156 kg/ha) | Postemergence herbicidal rating CHEAL ([2]; Rate 0.0313 kg/ha) | Postemergence herbicidal rating CHEAL ([2]; Rate 0.0625 kg/ha) | Postemergence herbicidal rating CHEAL ([2]; rate 0.0156 kg/ha) | Postemergence herbicidal rating IPOHE ([3]; Rate 0.0313 kg/ha) | Postemergence herbicidal rating IPOHE ([3]; Rate 0.0625 kg/ha) | Postemergence herbicidal rating IPOHE ([3]; rate 0.0156 kg/ha) | Preemergence herbicidal rating ABUTH ([8]; rate 0.0156 kg/ha) | Preemergence herbicidal rating ABUTH ([8]; rate 0.0313 kg/ha) | Preemergence herbicidal rating ABUTH ([8]; rate 0.0625 kg/ha) | Preemergence herbicidal rating ABUTH ([8]; rate 0.1250 kg/ha) | Preemergence herbicidal rating ABUTH ([8]; rate 0.2500 kg/ha) | Preemergence herbicidal rating CASOB ([9]; rate 0.2500 kg/ha) | Preemergence herbicidal rating CHEAL ([10]; rate 0.0156 kg/ha) | Preemergence herbicidal rating CHEAL ([10]; rate 0.0313 kg/ha) | Preemergence herbicidal rating CHEAL ([10]; rate 0.0625 kg/ha) | Preemergence herbicidal rating CHEAL ([10]; rate 0.1250 kg/ha) | Preemergence herbicidal rating CHEAL ([10]; rate 0.2500 kg/ha) | Preemergence herbicidal rating IPOHE ([11]; rate 0.1250 kg/ha) | Preemergence herbicidal rating IPOHE ([11]; rate 0.2500 kg/ha)
3.0: Postemergence herbicidal rating SETVI ([5]; rate 0.0156 kg/ha) | Postemergence herbicidal rating ORYSAT ([6]; Rate 0.0625 kg/ha) | Preemergence herbicidal rating CASOB ([9]; rate 0.0313 kg/ha) | Preemergence herbicidal rating CASOB ([9]; rate 0.1250 kg/ha) | Preemergence herbicidal rating ECHCG ([12]; rate 0.2500 kg/ha) | Preemergence herbicidal rating ZEAMX ([15]; rate 0.1250 kg/ha) | Preemergence herbicidal rating ZEAMX ([15]; rate 0.2500 kg/ha) | Herbicidal rating CYPSE ([17]; rate 0.0625 kg/ha)
5.0: Postemergence herbicidal rating ZEAMX ([7]; rate 0.0156 kg/ha)
5.5: Postemergence herbicidal rating ZEAMX ([7]; Rate 0.0313 kg/ha)
6.0: Postemergence herbicidal rating ZEAMX ([7]; Rate 0.0625 kg/ha)
